In US9115127B2 (AMGEN INC., priority 2010, dated 2015):

target: T1, wild-type human ALK (cytoplasmic domain, amino acids 1058-1620, N-terminal GST fusion) (Homo sapiens, UniProt Q9UM73); assay: ALK Inhibition in Enzyme Assay (Lance TR-FRET kinase assay); assay type: biochemical
T1 construct: The cytoplasmic domain (amino acids 1058-1620) of wild-type human ALK; GST (N); made in house; host or cells: SF9 insect cells
Summary of the method: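 Purified enzyme phosphorylated a biotinylated peptide substrate for 90 minutes at room temperature. Reactions were stopped with 20 mM EDTA in 50 mM Tris (pH 7.5), 100 mM NaCl, 0.05% BSA, 0.1% Tween-20. Phosphopeptide was detected by TR-FRET with SA-APC and Eu-W1024 anti-phosphotyrosine antibody PT66, excitation 320 nm.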

T1 sequence (Q9UM73 1058-1620): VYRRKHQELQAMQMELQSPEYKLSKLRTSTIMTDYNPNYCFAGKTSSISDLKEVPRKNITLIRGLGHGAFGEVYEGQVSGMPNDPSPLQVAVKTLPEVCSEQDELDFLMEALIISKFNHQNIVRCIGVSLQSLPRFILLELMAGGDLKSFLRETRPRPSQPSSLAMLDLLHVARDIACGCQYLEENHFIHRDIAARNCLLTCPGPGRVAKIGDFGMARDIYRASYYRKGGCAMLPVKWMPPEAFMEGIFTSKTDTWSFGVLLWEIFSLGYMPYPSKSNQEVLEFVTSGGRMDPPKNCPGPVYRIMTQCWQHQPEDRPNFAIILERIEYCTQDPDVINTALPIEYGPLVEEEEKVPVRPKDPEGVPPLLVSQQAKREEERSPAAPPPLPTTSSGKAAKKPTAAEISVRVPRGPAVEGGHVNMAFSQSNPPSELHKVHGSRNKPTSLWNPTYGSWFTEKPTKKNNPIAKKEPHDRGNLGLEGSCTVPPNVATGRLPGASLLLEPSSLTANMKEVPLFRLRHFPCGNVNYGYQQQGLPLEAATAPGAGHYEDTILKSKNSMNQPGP

| SMILES | IC50 |
| --- | --- |
| CC(C)NC(=O)[C@H]1CC[C@@H](n2/c(=N/C(=O)c3ccc(F)cc3)[nH]c3ccc(Cn4cccn4)cc32)CC1 [Example 197, (E)-N-(6-((1H-Pyrazol-1-yl)methyl)-1-(cis-4-(isopropylcarbamoyl)cyclohexyl)-1H-benzo[d]imidazol-2(3H)-ylidene)-4-fluorobenzamide] | < 0.05 µM |
| COCCOCc1ccc2[nH]/c(=N\C(=O)c3ccc(F)cc3)n([C@H]3CC[C@@H](C(=O)NC(C)C)CC3)c2c1 [Example 198, (E)-4-Fluoro-N-(1-(cis-4-(isopropylcarbamoyl)cyclohexyl)-6-((2-methoxyethoxy)methyl)-1H-benzo[d]imidazol-2(3H)-ylidene)benzamide] | < 0.05 µM |
| CC(C)(CO)NC(=O)[C@H]1CC[C@@H](n2/c(=N/C(=O)c3ccc(F)cc3)[nH]c3ccc(CN4CCOCC4)cc32)CC1 [Example 199, (E)-4-Fluoro-N-(1-(cis-4-(1-hydroxy-2-methylpropan-2-ylcarbamoyl)cyclohexyl)-6-(morpholinomethyl)-1H-benzo[d]imidazol-2(3H)-ylidene)benzamide] | < 0.05 µM |
| C[C@H](CO)NC(=O)[C@H]1CC[C@@H](n2/c(=N/C(=O)c3ccc(F)cc3)[nH]c3ccc(CN4CCOCC4)cc32)CC1 [Example 200, (E)-4-Fluoro-N-(1-(cis-4-((R)-1-hydroxypropan-2-ylcarbamoyl)cyclohexyl)-6-(morpholinomethyl)-1H-benzo[d]imidazol-2(3H)-ylidene)benzamide] | < 0.05 µM |
| O=C(/N=c1\[nH]c2ccc(CN3CCOCC3)cc2n1[C@H]1CC[C@@H](C(=O)NCCO)CC1)c1ccc(F)cc1 [Example 201, (E)-4-Fluoro-N-(1-(cis-4-(2-hydroxyethylcarbamoyl)cyclohexyl)-6-(morpholinomethyl)-1H-benzo[d]imidazol-2(3H)-ylidene)benzamide] | < 0.05 µM |
| O=C(/N=c1\[nH]c2ccc(CN3CCOCC3)cc2n1[C@H]1CC[C@@H](C(=O)N2CCOCC2)CC1)c1ccc(F)cc1 [Example 202, (E)-4-Fluoro-N-(1-(cis-4-(morpholine-4-carbonyl)cyclohexyl)-6-(morpholinomethyl)-1H-benzo[d]imidazol-2(3H)-ylidene)benzamide] | 0.1 to 1 µM |
| CN1CCN(C(=O)[C@H]2CC[C@@H](n3/c(=N/C(=O)c4ccc(F)cc4)[nH]c4ccc(CN5CCOCC5)cc43)CC2)CC1 [Example 203, (E)-4-Fluoro-N-(1-(cis-4-(4-methylpiperazine-1-carbonyl)cyclohexyl)-6-(morpholinomethyl)-1H-benzo[d]imidazol-2(3H)-ylidene)benzamide] | 0.1 to 1 µM |
| O=C(/N=c1\[nH]c2ccc(CN3CCOCC3)cc2n1[C@H]1CC[C@@H](C(=O)N2CCNCC2)CC1)c1ccc(F)cc1 [Example 204, (E)-4-Fluoro-N-(6-(morpholinomethyl)-1-(cis-4-(piperazine-1-carbonyl)cyclohexyl)-1H-benzo[d]imidazol-2(3H)-ylidene)benzamide] | < 0.05 µM |
| NC(=O)[C@H]1CC[C@@H](n2/c(=N/C(=O)c3ccc(F)cc3)[nH]c3ccc(CN4CCOCC4)cc32)CC1 [Example 205, (E)-N-(1-(cis-4-Carbamoylcyclohexyl)-6-(morpholinomethyl)-1H-benzo[d]imidazol-2(3H)-ylidene)-4-fluorobenzamide] | < 0.05 µM |
| CC(C)(O)CNC(=O)[C@H]1CC[C@@H](n2/c(=N/C(=O)c3ccc(F)cc3)[nH]c3ccc(CN4CCOCC4)cc32)CC1 [Example 206, (E)-4-Fluoro-N-(1-(cis-4-(2-hydroxy-2-methylpropylcarbamoyl)-cyclohexyl)-6-(morpholinomethyl)-1H-benzo[d]imidazol-2(3H)-ylidene)benzamide] | 0.05 to 0.1 µM |
| O=C(/N=c1\[nH]c2ccc(CN3CCOCC3)cc2n1[C@H]1CC[C@@H](C(=O)NO)CC1)c1ccc(F)cc1 [Example 207, (E)-4-Fluoro-N-(1-(cis-4-(hydroxycarbamoyl)cyclohexyl)-6-(morpholinomethyl)-1H-benzo[d]imidazol-2(3H)-ylidene)benzamide] | 0.05 to 0.1 µM |
| CONC(=O)[C@H]1CC[C@@H](n2/c(=N/C(=O)c3ccc(F)cc3)[nH]c3ccc(CN4CCOCC4)cc32)CC1 [Example 208, (E)-4-Fluoro-N-(1-(cis-4-(methoxycarbamoyl)cyclohexyl)-6-(morpholinomethyl)-1H-benzo[d]imidazol-2(3H)-ylidene)benzamide] | < 0.05 µM |
| COC(=O)[C@H]1CC[C@@H](n2/c(=N/C(=O)c3ccc(F)cc3)[nH]c3ccc(CN4CCC(C(C)(C)O)CC4)cc32)CC1 [Example 209, cis-Methyl 4-((E)-2-(4-fluorobenzoylimino)-6-((4-(2-hydroxypropan-2-yl)piperidin-1-yl)methyl)-2,3-dihydro-1H-benzo[d]imidazol-1-yl)cyclohexanecarboxylate] | < 0.05 µM |
| CC(C)(O)C1CCN(Cc2ccc3[nH]/c(=N\C(=O)c4ccc(F)cc4)n([C@H]4CC[C@@H](C(=O)O)CC4)c3c2)CC1 [Example 210, cis-4-((E)-2-(4-Fluorobenzoylimino)-6-((4-(2-hydroxypropan-2-yl)piperidin-1-yl)methyl)-2,3-dihydro-1H-benzo[d]imidazol-1-yl)cyclohexanecarboxylic acid] | 0.1 to 1 µM |
| CC(C)(O)C1CCN(Cc2ccc3[nH]/c(=N\C(=O)c4ccc(F)cc4)n([C@H]4CC[C@@H](C(=O)N5CCNCC5)CC4)c3c2)CC1 [Example 211, (E)-4-Fluoro-N-(6-((4-(2-hydroxypropan-2-yl)piperidin-1-yl)methyl)-1-(cis-4-(piperazine-1-carbonyl)cyclohexyl)-1H-benzo[d]imidazol-2(3H)-ylidene)benzamide] | < 0.05 µM |
| CC(C)(O)C1CCN(Cc2ccc3[nH]/c(=N\C(=O)c4ccc(F)cc4)n([C@H]4CC[C@@H](C(N)=O)CC4)c3c2)CC1 [Example 212, (E)-N-(1-(cis-4-Carbamoylcyclohexyl)-6-((4-(2-hydroxypropan-2-yl)piperidin-1-yl)methyl)-1H-benzo[d]imidazol-2(3H)-ylidene)-4-fluorobenzamide] | < 0.05 µM |

More lines, now with the values ahead:

| IC50 | SMILES |
| --- | --- |
| < 0.05 µM | CC(C)NC(=O)[C@H]1CC[C@@H](n2/c(=N/C(=O)c3ccc(F)cc3)[nH]c3ccc(CN4CCC(C(=O)N5CCOCC5)CC4)cc32)CC1 [Example 182, (E)-4-Fluoro-N-(1-(cis-4-(isopropylcarbamoyl)cyclohexyl)-6-((4-(morpholine-4-carbonyl)piperidin-1-yl)methyl)-1H-benzo[d]imidazol-2(3H)-ylidene)benzamide] |
| < 0.05 µM | CC(C)NC(=O)[C@H]1CC[C@@H](n2/c(=N/C(=O)c3ccc(F)cc3)[nH]c3ccc(CN4CCC(C)(O)CC4)cc32)CC1 [Example 183, (E)-4-Fluoro-N-(6-((4-hydroxy-4-methylpiperidin-1-yl)methyl)-1-(cis-4-(isopropylcarbamoyl)cyclohexyl)-1H-benzo[d]imidazol-2(3H)-ylidene)benzamide] |
| < 0.05 µM | CC(C)NC(=O)[C@H]1CC[C@@H](n2/c(=N/C(=O)c3ccc(F)cc3)[nH]c3ccc(CN4CCN(CC(C)(C)O)CC4)cc32)CC1 [Example 185, (E)-4-Fluoro-N-(6-((4-(2-hydroxy-2-methylpropyl)piperazin-1-yl)methyl)-1-(cis-4-(isopropylcarbamoyl)cyclohexyl)-1H-benzo[d]imidazol-2(3H)-ylidene)benzamide] |
| < 0.05 µM | CC(C)NC(=O)[C@H]1CC[C@@H](n2/c(=N/C(=O)c3ccc(F)cc3)[nH]c3ccc(CN4CCC(C(O)C(F)(F)F)CC4)cc32)CC1 (stereo partly drawn) [Example 186, (E)-4-Fluoro-N-(1-(cis-4-(isopropylcarbamoyl)-cyclohexyl)-6-((4-(2,2,2-trifluoro-1-hydroxyethyl)piperidin-1-yl)methyl)-1H-benzo[d]imidazol-2(3H)-ylidene)benzamide] |
| < 0.05 µM | CC[N+](CC)(CC)Cc1ccc2[nH]/c(=N\C(=O)c3ccc(F)cc3)n([C@H]3CC[C@@H](C(=O)NC(C)C)CC3)c2c1 [Example 187, N,N-Diethyl-N-(((E)-2-(4-fluorobenzoylimino)-3-(cis-4-(isopropylcarbamoyl)cyclohexyl)-2,3-dihydro-1H-benzo[d]imidazol-5-yl)methyl)ethanaminium chloride] |
| < 0.05 µM | CC(C)NC(=O)[C@H]1CC[C@@H](n2/c(=N/C(=O)c3ccc(F)cc3)[nH]c3ccc(CN4CCC(CNCC(F)(F)F)CC4)cc32)CC1 [Example 190, (E)-4-Fluoro-N-(1-(cis-4-(isopropylcarbamoyl)cyclohexyl)-6-((4-((2,2,2-trifluoroethylamino)methyl)piperidin-1-yl)methyl)-1H-benzo[d]imidazol-2(3H)-ylidene)benzamide] |
| < 0.05 µM | CC(C)NC(=O)[C@H]1CC[C@@H](n2/c(=N/C(=O)c3ccc(F)cc3)[nH]c3ccc(CN4CCC(F)(F)CC4)cc32)CC1 [Example 191, (E)-N-(6-((4,4-Difluoropiperidin-1-yl)methyl)-1-(cis-4-(isopropylcarbamoyl)cyclohexyl)-1H-benzo[d]imidazol-2(3H)-ylidene)-4-fluorobenzamide] |
| < 0.05 µM | COCc1ccc2[nH]/c(=N\C(=O)c3ccc(F)cc3)n([C@H]3CC[C@@H](C(=O)NC(C)C)CC3)c2c1 [Example 192, (E)-4-Fluoro-N-(1-(cis-4-(isopropylcarbamoyl)cyclohexyl)-6-(methoxymethyl)-1H-benzo[d]imidazol-2(3H)-ylidene)benzamide] |
| < 0.05 µM | CC(C)NC(=O)[C@H]1CC[C@@H](n2/c(=N/C(=O)c3ccc(F)cc3)[nH]c3ccc(Cn4cnnc4)cc32)CC1 [Example 195, (E)-N-(6-((4H-1,2,4-Triazol-4-yl)methyl)-1-(cis-4-(isopropylcarbamoyl)cyclohexyl)-1H-benzo[d]imidazol-2(3H)-ylidene)-4-fluorobenzamide] |
| < 0.05 µM | CC(C)NC(=O)[C@H]1CC[C@@H](n2/c(=N/C(=O)c3ccc(F)cc3)[nH]c3ccc(CN4CCC(F)(F)C4)cc32)CC1 [Example 196, (E)-N-(6-((3,3-Difluoropyrrolidin-1-yl)methyl)-1-(cis-4-(isopropylcarbamoyl)cyclohexyl)-1H-benzo[d]imidazol-2(3H)-ylidene)-4-fluorobenzamide] |
